One data set relates to A-431. The data set can be described thus: Cell proliferation inhibition experiment, CellTiter-Glo (CTG) method. In kind it is cell-based. Conditions: A-431 cells, 3 days. The essentials: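 Log-phase cells (viability >90%) were plated and incubated overnight, then dosed in triplicate across nine 3-fold concentrations. The top dose was 30 μM on A-431 and 1.111 μM on NCI-H1975 and PC-9. Survival after 3 days was measured by CellTiter-Glo and IC50 derived by non-linear regression.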
(In general: ATP-based viability assays read luminescence as a measure of living cells.)

The target in the next data set is T1, P-gp (Homo sapiens, UniProt P08183).
T1 construct: expressed in transfected cells; host or cells: MDCKII-MDR1 (MDCKII canine kidney cells expressing MDR1)
The experiment in a line: P-gp substrate evaluation experiment (MDCKII-MDR1 Transwell drug penetration test). In kind it is in vitro ADME. Conditions: dog, MDCK-MDR1, pH 7.4; read-out: ER (Efflux Ratio). As for the experimental part: P-gp Substrate Evaluation Experiment
Cell Culture • 1) High glucose DMEM medium containing L-glutamine was used and 10% fetal bovine serum, 0.1 mg/mL streptomycin and 0.6 mg/mL penicillin were added. • 2) MDCKII-MDR1 was cultured in a T-75 cell culture bottle. The incubator was set at the condition of 37° C., 5% CO2 and 95% relative humidity. Cells could be inoculated in Transwell when the cell confluence reached 70-90%. • 3) Before cell plant, 50 μL cell culture medium was added to each well in the upper chamber of the Transwell, and […] cell culture medium was added to the lower chamber of the Transwell.
Inoculation of MDCKII-MDR1 Cells • 1) Cell suspension was added to the upper chamber of the 96-well Transwell plate with […] each well, and the final inoculation density was 5.45×10^5 cells/cm^2. • 2) The medium was changed 48 hours after inoculation, the culture was carried out for 4-7 days, and the medium was changed every other day.
Evaluation of Cell Monolayer Integrity • 1) After 4-7 days of culture, MDCKII-MDR1 and MDKII should merge and differentiate completely. At this time, they could be applied to penetration test. • 2) The resistance of cell monolayer was measured by a resistance meter (Millipore, USA) and the resistance of each well was recorded. • 3) After finishing the detection, the Transwell plate was put back into the incubator. • 4) Resistance value was calculated: Resistance measured (ohms)×layer area (cm^2)=TEER value (ohm·cm^2)
If TEER value was less than 42 ohms·cm^2, the well can not be used for penetration testing.
Drug Penetration Test • 1) The MDCKII-MDR1 Transwell plate was taken out from the incubator. The cell monolayer was rinsed with HBSS buffer (25 mM HEPES, pH 7.4) twice and incubated for 30 minutes at 37° C. • 2) The transport rate of compounds from the top to the bottom was determined. […] 70 μL supernatant was drawn, diluted with equal volume of water and then subjected to LC-MS/MS analysis. All samples were prepared in three parallel ways. • 6) The cell monolayer integrity after 2-hour incubation was evaluated by leakage of fluorescent yellow, HBSS (25 mM HEPES, pH 7.4) was used to dilute the stock solution of fluorescent yellow till the final concentration was 100 μM. 100 μL fluorescent yellow solution was added to each well in the upper chamber of the Transwell plate and 300 μL HBSS (25 mM HEPES, pH 7.4) was added to each well in the lower chamber of the Transwell plate. After incubation at 37° C. for 30 minutes, 80 μL solution was drawn respectively from each well in the upper and lower chamber to a new 96-well plate. The fluorescence was determined at 485 nm as excitation wavelength and 530 nm as emission wavelength by using a microplate reader.
Data calculation was carried out through Excel, the apparent permeability index (Papp, cm/s) of compounds was calculated through the formula shown as follow: […]
wherein, the membrane area in the formula is the membrane area of Transwell-96 plate (0.143 cm^2); the unit of incubation time is second (s).
Efflux ratio was calculated through the formula shown as follow: […]

A further data set has as its system PC-9. The experiment in a line: Cell proliferation inhibition experiment, CellTiter-Glo (CTG) method. Format: cell-based. The conditions noted are these: PC-9 cells, 3 days. Summed up:
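Cells in log-phase growth (viability above 90% by trypan blue) were seeded at 90 μL per well in black-walled, clear-bottom 96-well plates and incubated overnight at 37° C., 5% CO2. A T0 plate was read the next day. Test compounds were added at nine concentrations in triplicate with a solvent control. Viability was measured by CellTiter-Glo luminescence on EnVision, and IC50 came from non-linear S-curve fitting in GraphPad Prism 5.0.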

For the next data set, the system named is NCI-H1975. The data set is described as above. In kind it is cell-based. The conditions noted are these: for IC50: NCI-H1975 cells, CTG, 3 days; for A-431/NCI-H1975 Selectivity: ratio of A-431 IC50 to NCI-H1975 IC50. The essentials:
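NCI-H1975 cells with viability above 90% by trypan blue were seeded at 90 μL per well in black 96-well plates and incubated overnight at 37° C., 5% CO2. Compounds were added at nine concentrations in triplicate, and viability was measured with CellTiter-Glo luminescence on EnVision. IC50 came from non-linear S-curve fitting in GraphPad Prism 5.0.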

Broadly, the IC50 is the concentration needed to halve the response being measured. The low end stands for greater potency, the high end for weaker potency.

T1 sequence (P08183 whole entry): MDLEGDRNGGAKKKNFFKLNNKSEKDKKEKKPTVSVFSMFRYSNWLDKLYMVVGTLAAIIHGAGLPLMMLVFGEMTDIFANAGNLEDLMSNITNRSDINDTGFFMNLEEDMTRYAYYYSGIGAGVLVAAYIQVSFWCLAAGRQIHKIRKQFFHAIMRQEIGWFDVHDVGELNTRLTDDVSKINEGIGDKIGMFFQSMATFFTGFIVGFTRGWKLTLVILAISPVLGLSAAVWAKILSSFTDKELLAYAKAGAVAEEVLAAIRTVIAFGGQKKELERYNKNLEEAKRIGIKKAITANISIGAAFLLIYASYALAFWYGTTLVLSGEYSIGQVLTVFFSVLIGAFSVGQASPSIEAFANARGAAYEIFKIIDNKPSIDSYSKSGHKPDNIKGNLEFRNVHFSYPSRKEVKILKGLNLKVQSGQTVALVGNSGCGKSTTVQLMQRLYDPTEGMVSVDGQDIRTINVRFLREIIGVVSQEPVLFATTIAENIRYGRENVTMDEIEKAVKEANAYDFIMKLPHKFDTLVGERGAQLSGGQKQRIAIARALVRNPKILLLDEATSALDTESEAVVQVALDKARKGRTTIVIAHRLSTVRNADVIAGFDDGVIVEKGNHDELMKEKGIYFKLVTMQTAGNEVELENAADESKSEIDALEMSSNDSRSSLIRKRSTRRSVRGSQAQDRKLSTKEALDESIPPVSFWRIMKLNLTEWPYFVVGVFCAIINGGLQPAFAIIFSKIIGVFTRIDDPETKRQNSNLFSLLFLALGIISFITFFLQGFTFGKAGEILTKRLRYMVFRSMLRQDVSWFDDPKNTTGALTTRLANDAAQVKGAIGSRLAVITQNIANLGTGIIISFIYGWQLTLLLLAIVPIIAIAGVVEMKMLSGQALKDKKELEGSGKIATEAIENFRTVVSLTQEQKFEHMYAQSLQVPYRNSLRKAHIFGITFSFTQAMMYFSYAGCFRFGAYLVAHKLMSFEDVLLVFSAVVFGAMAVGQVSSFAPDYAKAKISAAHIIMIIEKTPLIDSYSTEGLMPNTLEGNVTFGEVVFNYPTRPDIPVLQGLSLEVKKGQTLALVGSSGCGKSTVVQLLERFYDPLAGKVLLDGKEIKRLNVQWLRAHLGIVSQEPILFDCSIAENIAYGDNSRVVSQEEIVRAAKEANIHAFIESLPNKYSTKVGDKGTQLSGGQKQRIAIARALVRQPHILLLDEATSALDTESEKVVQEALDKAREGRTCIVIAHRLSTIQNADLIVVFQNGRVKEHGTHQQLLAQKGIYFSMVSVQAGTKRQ

Turning to `C=CC(=O)Nc1cc(Nc2nccc(-c3ccc4c(cnn4C)c3)n2)c(OC)cc1N(C)CCN(C)C` [compound 3], the IC50 with A-431 (Homo sapiens, A-431, 72 h) turned out to be 491 nM; in the data set on PC-9 (Homo sapiens, PC-9, 72 h), 7.9 nM; in the data set with NCI-H1975 (Homo sapiens, NCI-H1975, 72 h) it was 4.1 nM. Further, at P-gp, the efflux ratio at 2 h is 5.87. Moreover, the “A-431/NCI-H1975 Selectivity” value with NCI-H1975 was found to be 120.3.
As to `C=CC(=O)Nc1cc(Nc2cc(-c3ccc4c(cnn4C)c3)ncn2)c(OC)cc1N1CCN(C)CC1` [compound 8], the IC50 in the data set on A-431 (Homo sapiens, A-431, 72 h) turned out to be 872 nM; with PC-9 (Homo sapiens, PC-9, 72 h) it was 27.3 nM; in the data set on NCI-H1975 (Homo sapiens, NCI-H1975, 72 h), 3.5 nM. Further, the efflux ratio at 2 h on P-gp was determined as 3.14. For the same molecule, the “A-431/NCI-H1975 Selectivity” value in the data set on NCI-H1975 is listed as 251.1.
Taken in the same sequence, the figures for `C=CC(=O)Nc1cc(Nc2cc(-c3ccc4c(cnn4C)c3)ncn2)c(OC)cc1N1CC(C)N(C)C(C)C1` (centres unmarked) [compound 23] were 617 nM, 9 nM, 13.7 nM, 4.28 and 45.0.
For `C=CC(=O)Nc1cc(Nc2cc(-c3ccc4c(cnn4C)c3)ncn2)c(OC)cc1N1C[C@@H](C)N(C)[C@@H](C)C1` [compound 24], the IC50 is 1060 nM in the data set with A-431 (Homo sapiens, A-431, 72 h); 8.1 nM in the data set on PC-9 (Homo sapiens, PC-9, 72 h); 11.8 nM in the data set with NCI-H1975 (Homo sapiens, NCI-H1975, 72 h). In addition, the efflux ratio at 2 h at P-gp was 1.05. In addition, the “A-431/NCI-H1975 Selectivity” value with NCI-H1975 was 90.1.
Taken in the same sequence, the figures for `C=CC(=O)Nc1cc(Nc2cc(-c3ccc4c(cnn4C)c3)ncn2)c(OC)cc1N1CCC(N(C)C)CC1` [compound 26] were 216 nM, 9.1 nM, 10.4 nM, 5.79 and 20.7.
For the molecule `C=CC(=O)Nc1cc(Nc2cc(-c3ccc4c(cnn4C)c3)ncn2)c(OC)cc1N1CCC(N2CCOCC2)CC1` [compound 27], the half-inhibitory concentration (IC50) in the data set with A-431 stood at 387 nM; with PC-9, 21.6 nM; in the data set with NCI-H1975, 14.2 nM. Besides, at P-gp, the efflux ratio at 2 h turned out to be 1.67. The “A-431/NCI-H1975 Selectivity” value with NCI-H1975 is on record as 27.2.
Turning to `C=CC(=O)Nc1cc(Nc2cc(-c3ccc4c(cnn4C)c3)ncn2)c(OC)cc1N1CCC(N2CCN(C)CC2)CC1` [compound 33], the IC50 in the data set with A-431 (Homo sapiens, A-431, 72 h) turned out to be 813 nM; with PC-9 (Homo sapiens, PC-9, 72 h), 8.2 nM; in the data set on NCI-H1975 (Homo sapiens, NCI-H1975, 72 h), 5.6 nM. For the same molecule, the efflux ratio at 2 h on P-gp turned out to be 7.7. For the same molecule, in the data set on NCI-H1975, the “A-431/NCI-H1975 Selectivity” value turned out to be 145.7.
Consider `C=CC(=O)Nc1cc(Nc2cc(-c3ccc4c(cnn4C)c3)ncn2)c(OC)cc1N1CCC(C2CCN(C)CC2)CC1` [compound 34], for which the IC50 amounted to 1950 nM in the data set with A-431 (Homo sapiens, A-431, 72 h); 10.7 nM in the data set with PC-9 (Homo sapiens, PC-9, 72 h); 26.3 nM in the data set on NCI-H1975 (Homo sapiens, NCI-H1975, 72 h). Also, on P-gp, the efflux ratio at 2 h stood at 6.12. Also, the “A-431/NCI-H1975 Selectivity” value with NCI-H1975 is reported as 74.1.
Regarding `C=CC(=O)Nc1cc(Nc2cc(-c3ccc4c(cnn4C)c3)ncn2)c(OC)cc1N(C)CCN1CCN(C)CC1` [compound 60], the half-maximal inhibitory concentration (IC50) came out at 2300 nM in the data set with A-431 (Homo sapiens, A-431, 72 h); 9.6 nM in the data set on PC-9 (Homo sapiens, PC-9, 72 h); 10.6 nM in the data set on NCI-H1975 (Homo sapiens, NCI-H1975, 72 h). The efflux ratio at 2 h at P-gp worked out at 6.49. For the same molecule, the “A-431/NCI-H1975 Selectivity” value with NCI-H1975 is reported as 217.0.
The corresponding values for `C=CC(=O)Nc1cc(Nc2cc(-c3ccc4c(cnn4C)c3)ncn2)c(OC)cc1N(C)CCN(CC)CC` [compound 62] are 1170 nM, 15.7 nM, 33.5 nM, 2.44 and 35.0.
The corresponding values for `C=CC(=O)Nc1cc(Nc2nccc(-c3ccc4c(cnn4C)c3)n2)c(OC)cc1N1CCC(N2CCCC2)CC1` [compound 68] are 921 nM, 15.3 nM, 14.7 nM, 8.98 and 62.7.
Taken in the same sequence, the figures for `C=CC(=O)Nc1cc(Nc2cc(-c3ccc4c(cnn4C)c3)ncn2)c(OC)cc1N(C)C1CCN(C2CCN(C)CC2)CC1` [compound 70] were 1160 nM, 14.7 nM, 17.6 nM, 41.4 and 66.1.
Regarding `C=CC(=O)Nc1cc(Nc2cc(-c3ccc4c(cnn4C)c3)ncn2)c(OC)cc1N1CCN(CCOC)CC1` [compound 99], the IC50 in the data set on A-431 (Homo sapiens, A-431, 72 h) was found to be 886 nM; with PC-9 (Homo sapiens, PC-9, 72 h), 43.2 nM; with NCI-H1975 (Homo sapiens, NCI-H1975, 72 h), 9.8 nM. For the same molecule, the efflux ratio at 2 h at P-gp was 1.54. For the same molecule, the “A-431/NCI-H1975 Selectivity” value with NCI-H1975 was 90.4.
The corresponding values for `C=CC(=O)Nc1cc(Nc2cc(-c3ccc4c(cnn4C)c3)ncn2)c(OC)cc1N1CCC(N2C[C@@H](C)N(C)[C@@H](C)C2)CC1` [compound 100] are 654 nM, 15.3 nM, 5.7 nM, 20 and 114.7.
Taken in the same sequence, the figures for `C=CC(=O)Nc1cc(Nc2cc(-c3ccc4c(cnn4C)c3)ncn2)c(OC)cc1N1CCC(N2C[C@@H](C)O[C@@H](C)C2)CC1` [compound 103] were 648 nM, 19.2 nM, 8 nM, 2.28 and 81.0.
Taken in the same sequence, the figures for `C=CC(=O)Nc1cc(Nc2cc(-c3ccc4c(cnn4C)c3)ncn2)c(OC)cc1OCCN(C)C` [compound 104] were 544 nM, 14.2 nM, 6 nM, 3.12 and 90.6.
`C=CC(=O)Nc1cc(Nc2cc(-c3ccc4c(cnn4C)c3)ncn2)c(OC)cc1N1CCC(N2CCCC2)CC1` [compound 108]: the IC50 was 567 nM in the data set on A-431 (Homo sapiens, A-431, 72 h); 5.7 nM in the data set with PC-9 (Homo sapiens, PC-9, 72 h); 3.2 nM with NCI-H1975 (Homo sapiens, NCI-H1975, 72 h). The efflux ratio at 2 h on P-gp worked out at 18.1. In addition, in the data set on NCI-H1975, the “A-431/NCI-H1975 Selectivity” value worked out at 177.3.
`C=CC(=O)Nc1cc(Nc2nccc(-c3ccc4c(cnn4C)c3)n2)c(OC2CC2)cc1N(C)CCN(C)C` [compound 292]: the IC50 with A-431 (Homo sapiens, A-431, 72 h) amounted to 2980 nM; in the data set with PC-9 (Homo sapiens, PC-9, 72 h), 64.7 nM; in the data set with NCI-H1975 (Homo sapiens, NCI-H1975, 72 h) it was 90.4 nM. In the data set on NCI-H1975, the “A-431/NCI-H1975 Selectivity” value is given as 32.9.
Taken in the same sequence, the figures for `C=CC(=O)Nc1cc(Nc2cc(-c3ccc4c(cnn4C)c3)ncn2)c(OC)cc1N(C)C1CCN(C(C)=O)CC1` [compound 293] were 2730 nM, 54.2 nM, 79.6 nM and 34.3.
Taken in the same sequence, the figures for `C=CC(=O)Nc1cc(Nc2cc(-c3ccc4c(cnn4C)c3)ncn2)c(OC)cc1CN1CCN(C)CC1` [compound 294] were 4580 nM, 44.9 nM, 71.3 nM and 64.2.
Taken in the same sequence, the figures for `C=CC(=O)Nc1cccc(Nc2nc(Nc3ccc4c(cnn4C)c3)ncc2F)c1` [known compound 296, reference compound] were 1440 nM, 121 nM, 90.7 nM and 15.9.

(Values after patent publication US11352352B2, “Aminopyrimidine compound, preparation method therefor and use thereof” (BEIJING ADAMADLE BIOTECHNOLOGY LIMITED LIABILITY COMPANY, priority 2017, dated 2022).)
